Source: publication PMC10578927, “An unconventional gatekeeper mutation sensitizes inositol hexakisphosphate kinases to an allosteric inhibitor” (eLife, 2023)
Changes are numbered by the printed parent chain. Read-outs that look alike come from different tables or passages of the source.

How the values were obtained:
Format in all cases: biochemical
[1] = target: T1, IP6K2^L206V (Homo sapiens, UniProt Q9UHH9, L206V); experiment: NMR activity assay, [13C6]-InsP6 to 5PP-InsP5
T1 construct: made in house; host or cells: E. coli Arctic Express
T1 sequence (Q9UHH9 1-426 L206V): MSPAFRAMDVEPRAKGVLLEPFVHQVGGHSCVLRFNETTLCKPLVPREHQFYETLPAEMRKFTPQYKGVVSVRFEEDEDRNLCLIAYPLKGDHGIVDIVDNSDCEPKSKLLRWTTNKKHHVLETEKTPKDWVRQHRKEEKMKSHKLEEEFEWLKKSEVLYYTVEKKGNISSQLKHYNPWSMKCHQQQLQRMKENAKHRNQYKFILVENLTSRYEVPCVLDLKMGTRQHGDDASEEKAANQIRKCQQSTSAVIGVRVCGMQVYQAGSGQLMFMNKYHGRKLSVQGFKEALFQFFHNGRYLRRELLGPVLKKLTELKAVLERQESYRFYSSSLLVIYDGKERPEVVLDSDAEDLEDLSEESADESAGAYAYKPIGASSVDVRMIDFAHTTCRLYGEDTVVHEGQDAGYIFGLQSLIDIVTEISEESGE
Experimental: (§1) The NMR assay for IP6K activity was performed similarly as described before ([Harmel et al., 2019]) with slight alterations. Enzyme assays were performed in D2O in a total volume of 150 µl containing 20 mM 4-(2-hydroxyethyl)-1-piperazineethanesulfonic acid (HEPES) pH* 6.8, 50 mM NaCl, 6 mM MgCl2, 1 mM ATP, 0.2 mg/ml BSA, 1 mM DTT, 5 mM creatine phosphate and 1 U/ml creatine kinase (ATP-regenerating system) and 50 nM kinase if not otherwise stated. HEPES, NaCl, and BSA were prepared as buffer A and DTT and creatine phosphate as buffer B in D2O and were adjusted to pH* 6.8, respectively. If applicable, inhibitor was added as a DMSO-d6 stock in a twofold dilution series at a final DMSO concentration of 1% if not otherwise mentioned. Otherwise, DMSO-d6 was added to the same percentage. The samples were equilibrated at 37°C for 3 min and the reaction initiated by adding 100 µM [^13C6]-InsP6.

[2] = target: T2, IP6K2^wt (Homo sapiens, UniProt Q9UHH9); experiment: NMR activity assay, [13C6]-InsP6 to 5PP-InsP5
T2 construct: made in house; host or cells: E. coli Arctic Express
T2 sequence (Q9UHH9 1-426): T1 sequence (Q9UHH9 1-426 L206V) with V206L
Experimental: as §1

[3] = target: T3, IP6K1^L210V (Homo sapiens, UniProt Q92551, L210V); experiment: High-throughput screen, reverse kinase reaction (5PP-InsP5 + ADP), Kinase-Glo luminescence
T3 construct: made in house; host or cells: E. coli Arctic Express
Excerpt: Although the NMR assay described above provides direct product detection and the ability to distinguish the PP-InsP isomers ([Harmel et al., 2019]), it is inherently slow and thus not compatible with a high-throughput screen. The use of luminescence-based readouts of ATP consumption to measure IP6K activity is error-prone due to the kinase’s unusually low affinity for ATP, the sensitivity to the ATP/ADP ratio, and its inherent ATPase activity ([Wundenberg et al., 2014]; [Voglmaier et al., 1996]). Nevertheless, we were able to take advantage of these properties by examining the reverse reaction of IP6K1 with the Kinase-Glo assay, where 5PP-InsP5 and ADP are converted to InsP6 and ATP (Figure 3a).
The following solutions were prepared as 4× stock solutions: kinase buffer (HEPES pH 7.4, NaCl, BSA, MgCl2, Tween-20, DTT, and IP6K1^L210V), DMSO/inhibitor, ADP, and 5PP-InsP5. Final concentrations after optimization were 1 mM ADP, 20 mM HEPES, 50 mM NaCl, 0.2 mg/ml BSA, 2 mM MgCl2, 0.05% Tween-20, 1 mM DTT, 250 nM IP6K1^L210V, and 50 μM 5PP-InsP5. The reactions were carried out in 384-well plates following this procedure. 5 µl 4× kinase buffer (buffer only for no kinase controls), 5 µl 4× DMSO or inhibitor and 5 µl 4× ADP solution were subsequently added to all wells. After 10 min equilibration, 5 μl 4× 5PP-InsP5 were added to start the reaction (milli-Q water for negative controls). After 3 hr at room temperature, 20 µl of Promega Kinase-Glo Plus reagent were added and the luminescence read out with a Tecan Infinite M Plex reader using 100-ms exposure time after 10 min of equilibration.
ADP was prepared in a 2× stock solution in milli-Q water and the pH adjusted to 7.0. The following solutions were prepared as 4× stock solutions: kinase buffer (HEPES pH 7.4, NaCl, BSA, MgCl2, Tween-20, DTT, and IP6K1^L210V) and 5PP-InsP5. Final concentrations were 1 mM ADP, 20 mM HEPES, 50 mM NaCl, 0.2 mg/ml BSA, 2 mM MgCl2, 0.05% Tween-20, 1 mM DTT, 250 nM IP6K1^L210V, and 50 µM 5PP-InsP5. The reactions were carried out in 384-well plates following this procedure. 10 µl 2× ADP solution were added to all wells, then 0.2 µl DMSO or compound (1 mM in DMSO) were added followed by the addition of 5 µl 4× kinase buffer. For dose–response curves, compounds were added in serial dilution (twofold serial dilutions in DMSO across multiple plates prior to compound transfer to assay plates, 9 concentrations in total). After 10 min equilibration, 5 µl 4× 5PP-InsP5 were added to start the reaction (milli-Q water for negative controls). After 3 hr at room temperature, 20 µl of Promega Kinase-Glo Plus reagent were added and the luminescence read out with a Tecan Infinite M Plex or Perkin Elmer EnVision reader using 100ms exposure time after 10 min of equilibration. In the counter screen, dose–response curves were measured in the absence of kinase and presence of 50 µM ATP.

T3 sequence (Q92551 whole entry L210V): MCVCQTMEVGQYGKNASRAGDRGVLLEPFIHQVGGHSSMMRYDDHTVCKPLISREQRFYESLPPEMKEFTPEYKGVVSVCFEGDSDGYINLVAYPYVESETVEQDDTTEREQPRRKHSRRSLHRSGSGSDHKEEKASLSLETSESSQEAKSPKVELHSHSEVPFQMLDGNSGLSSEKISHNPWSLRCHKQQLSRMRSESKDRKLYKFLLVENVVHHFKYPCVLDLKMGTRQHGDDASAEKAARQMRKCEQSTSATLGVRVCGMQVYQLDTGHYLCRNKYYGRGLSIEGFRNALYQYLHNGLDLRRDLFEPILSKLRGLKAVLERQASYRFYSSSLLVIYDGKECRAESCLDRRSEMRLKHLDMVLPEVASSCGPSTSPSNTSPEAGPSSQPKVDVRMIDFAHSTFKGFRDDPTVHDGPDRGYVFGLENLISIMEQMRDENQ

For `O=C(O)c1ccc2c(c1)C(=O)N(c1ccc(-c3nc4ccc(N5C(=O)c6ccc(C(=O)O)cc6C5=O)cc4[nH]3)cc1)C2=O` [FMP-201300], the IC50 ([1]; NMR assay) was 186 nM, the “times more potent against IP6K2^L206V compared to IP6K2^wt” value ([1]; ratio of IC50 values) was 11 and the IC50 [2] was 2140 nM. The IC50 ([2]; Figure 4b) was 2140 nM, the IC50 ([3]; Kinase-Glo, reverse reaction, dose-dependent reconfirmation) was 1600 nM and the Z-score ([3]; primary screen, IP6K1^L210V) was -24.0. For the same compound, the “%Activity” value ([3]; primary screen, residual activity of IP6K1^L210V) was 12.5%.
